Reference: patent US20160193216A1 (Nimbus Iris, Inc., priority 2012, published 2016)
Where two headings read alike, the source gives them in different places.

Key:
[1] = test system: ABC DLBCL cell lines; test: Cell viability assay, combination with ibrutinib; format: cell-based
Description: Compounds of the present invention were also evaluated in a cell viability assay.

[2] = test system: collagen-induced arthritis; test: In vivo murine collagen-induced arthritis model; conditions: DBA mice, vs vehicle
Description: In Vivo Murine Collagen-Induced Arthritis Model Compounds of the present invention were also evaluated in mice in an in vivo efficacy model for inhibiting IRAK4-mediated arthritis. An exemplary protocol for this assay follows. Male DBA mice were immunized with collagen on day 0 and day 21 and randomly enrolled into groups upon onset of disease. […] Eight mice were enrolled per group with the exception of the naïve control group, which contained four mice. Day 1 was designated as the first treatment day, and mice were evaluated daily for clinical scores until day 11. The mice were weighed on alternating days.

[3] = test system: ABC DLBCL Cells; test: sensitization of ABC DLBCL cells to IRAK inhibitors by BTK knockdown; format: cell-based; conditions: BTK knockdown (FIG. 9)
Text: FIG. 8 depicts the sensitization of ABC DLBCL Cells to IRAK Inhibitors by BTK knockdown.

[4] = test system: GCB DLBCL Cells; test: sensitization of GCB DLBCL cells by BTK knockdown; format: cell-based; conditions: BTK knockdown (FIG. 10)
[5] = test system: hPBMC; test: In vitro LPS/R848/CpG/IL-1β-induced cytokine production assay in hPBMC; format: cell-based; conditions: Homo sapiens
Description: In Vitro LPS/R848/CpG-Induced Cytokine Production Assays in hPBMC or Whole Blood
Compounds of the present invention were also studied in in vitro LPS/R848/CpG-induced cytokine production assays. Exemplary protocols follow.
[…] Cells were seeded in a 96-well plate with 130 ul/well of the cell suspension according to the plate map. 9 ul of 30 mM compound solution was added into the wells in the assigned rows, then serial solutions with 4× dilutions were made. That is, add 9 uL of 100% DMSO into each of the rest wells and take 3 uL of compound solution from the one-step higher concentration solution and mix well with the DMSO. For the second compound master plate, 196 uL of the growth medium (no serum media) were added into each of the wells and 4 uL of the compound solution from the first compound master plate was added and mixed with the media. Cells were treated for 0.5 h by adding 20 uL of the compound and the control solutions prepared in the second master plate to each well according to the plate map. […] Plates were sealed with sealing films and the plates were centrifuged at 3000 rpm at 4 degrees C. for 5 min. The supernatants were transferred, and 100 ul of working Capture antibody solution was added to each well. The plates were sealed and incubated overnight at RT. IL-6, IFN-α or TNF-α detection antibody labeled with biotin: Added 100 uL of the Detection Antibody solution to each well. Covered the plate and incubated for 2 h at RT. Added 100 uL of Streptavidin-HRP solution to each well. Covered the plate and incubate for 20 min at RT in dark. Added 100 uL of Substrate Solution to each well. Incubated for 20 min at RT in dark. Added 50 uL of Stop Solution to each well. Gently tapped the plate to ensure thorough mixing. Determined the optical density of each well immediately, using a microplate reader set to 450 nm and also read at 540 nm or 570 nm for correction if wavelength correction is not available.

[6] = biological target: T1, IRAK4 (Homo sapiens, UniProt Q9NWZ3); test: IRAK-4 activity inhibition assay (Caliper); format: biochemical; conditions: 37 μM ATP, 3.5 nM IRAK4
T1 sequence (Q9NWZ3 1-460): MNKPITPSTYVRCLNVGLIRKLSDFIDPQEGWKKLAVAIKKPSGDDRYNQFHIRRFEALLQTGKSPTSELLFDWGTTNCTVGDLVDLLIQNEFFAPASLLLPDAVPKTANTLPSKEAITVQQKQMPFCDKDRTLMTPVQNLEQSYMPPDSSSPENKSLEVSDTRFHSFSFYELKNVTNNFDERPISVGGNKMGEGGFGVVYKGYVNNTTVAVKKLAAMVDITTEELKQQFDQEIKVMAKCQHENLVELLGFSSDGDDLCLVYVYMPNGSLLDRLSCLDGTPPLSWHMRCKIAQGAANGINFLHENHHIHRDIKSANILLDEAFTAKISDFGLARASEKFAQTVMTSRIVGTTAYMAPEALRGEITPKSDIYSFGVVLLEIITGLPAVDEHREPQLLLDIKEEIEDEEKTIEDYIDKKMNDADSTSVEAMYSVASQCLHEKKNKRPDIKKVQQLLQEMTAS

- IC50 ([5]; CpG 0.1 uM, read-out: IFN-α production IC50): 500 to 1000 nM
- IC50 ([5]; CpG 0.5 uM, read-out: TNF-α production IC50): 250 to 500 nM
- IC50 ([5]; IL-1β 1 ng/mL, read-out: IL-6 production IC50): 250 to 500 nM
- IC50 ([5]; LPS 0.01 ug/mL, read-out: IL-6 production IC50): ≤ 250 nM
- IC50 ([5]; LPS 0.01 ug/mL, read-out: TNF-α production IC50): 250 to 500 nM
- IC50 ([5]; R848 1 uM, read-out: TNF-α production IC50): 500 to 1000 nM
- IC50 [6]: < 5000 nM
Structure (SMILES): NC(=O)C[C@H]1CCc2sc3ncnc(O[C@H]4CC[C@H](N5CCOCC5)CC4)c3c21 [Compound I-67, 2-((R)-4-(((1r,4R)-4-morpholinocyclohexyl)oxy)-6,7-dihydro-5H-cyclopenta[4,5]thieno[2,3-d]pyrimidin-5-yl)acetamide]
- Killing of ABC DLBCL cells in combination with ibrutinib [1]: Synergistic killing
- Clinical scores, collagen-induced arthritis ([2]; intraperitoneally 30 mg/kg twice a day): efficacious compared to the vehicle
- Clinical scores, collagen-induced arthritis ([2]; orally 30 mg/kg twice a day): efficacious compared to the vehicle
- sensitization of ABC DLBCL Cells to compound by BTK knockdown [3]: sensitization
- sensitization of GCB DLBCL Cells to compound by BTK Knockdown [4]: lack of sensitization
